# Results: PMC7215935, “GM1 Oligosaccharide Crosses the Human Blood–Brain Barrier In Vitro by a Paracellular Route” (International Journal of Molecular Sciences, 2020)
# Tests used:
# [1] = tested on: hBLECs; test: Toxicity on hBLECs / monolayer integrity by LY permeability in combination with test substance; assay type: cell-based, human; conditions: 10, 50, 100 and 300 μM with 50 μM LY, 60 min and over time (20, 40, 60 min)
# Procedure: Prior to the experiments, in order to verify the hBLECs’ monolayer integrity and stability, the permeability parameters were verified as previously reported. Briefly, 1.5 mL Ringer–Hepes solution (RH) (150 mM NaCl, 5.2 mM KCl, 2.2 mM CaCl2, 0.2 mM MgCl26H2O, 6 mM NaHCO3, 5 mM HEPES, pH: 7.4) was added to empty wells of a 12-well plate. Filter insert containing confluent monolayers of hBLECs or not (control) were subsequently placed in the 12-well plate, filled with 0.5 mL RH buffer containing the fluorescent integrity marker LY (50 μM), and then placed on an orbital shaker (150 rpm, Heidolph Titramax 100) at 37 °C in a humidify atmosphere of 95% air/5% CO2. Every 20 min for 1 h, filter inserts were withdrawn from the receiver compartment and placed in the next one. To verify the quantity of LY, at the end of the experiments, aliquots from the donor solution were taken at the end of the experiments and the fluorescence was quantified using a quantification curve of LY as referee. At least three inserts with cells and three without cells were tested in each permeability measurement. The fluorescence was measured using a luminescence spectrometer (LS 50B, Perkin Elmer), using the following excitation/emission wavelength (nm) settings: 432/538. Pe parameters were calculated according to the formulas shown in the Supplementary Information (Equations (7)–(10)). In parallel, as positive control for breakdown of hBLECs, D-mannitol, was used at a concentration of 1.4 M. At this concentration, mannitol induces an osmotic shock, and thus an increase in paracellular permeability.
# To evaluate the toxicity of GM1 and OligoGM1, the LY endothelial permeability (Pe) and apparent permeability (Papp) were considered for evaluation of hBLEC monolayer integrity after administration of compounds.
# To examine the LY permeability, 1.5 mL of RH buffer was added to empty wells of a 12-well plate, then hBLEC filters were placed in the 12-well plate and filled with 0.5 mL RH buffer containing 50 μΜ LY plus OligoGM1 or GM1 at an appropriate test concentration (from 5 to 300 μΜ). The hBLEC inserts were moved every 20 min to a new RH-filled well up to 60 min. At the end of the incubation period, solutions were collected from apical and basolateral compartments, LY was quantified, and Papp was calculated as reported in the Supplementary Information (Equation (1)) and previously mentioned.
# [2] = tested on: hBLECs; test: Metabolic integrity of OligoGM1 after hBLEC transport (HPTLC autoradiography); assay type: in vitro ADME, human; conditions: basolateral compartment, detection limit 15 dpm
# From the text: Since OligoGM1 is tritium labeled at position 6 of the external galactose, any possible galactosidase activity present on the plasma membrane of hBLECs can result in external galactose removal, leading to loss of radioactivity from the penta-saccharide. Radiolabeled galactose may pass the BBB or may enter into the cells and be recycled for the biosynthesis of new glycans, so that the radioactivity found may correspond to the galactose or to any possible new glycan rather than to the original oligosaccharide.
# Thus, to test the integrity of the OligoGM1 molecule after hBLEC crossing, OligoGM1 solution was prepared in RH buffer at a final concentration of 100 μM plus 1 × 10^6 dpm of tritium-labeled OligoGM1. For the apical–basolateral transport experiment, the hBLEC insert’s apical side was filled with 0.5 mL of the drug solution and placed on 1.5 mL RH buffer-filled well of a 12-well plate. After 60 min, the solution of the receiving compartment (about 1.5 mL) was collected and 200 μL were combined with 5 mL of ULTIMA GOLD liquid (PerkinElmer), shaken, and counted for 20 min by a liquid scintillation analyzer (TRI-CARB 2100TR, Packard).
# To verify that the counted radioactivity indeed corresponded to [^3H]OligoGM1, 0.5 mL of receiving compartment solution was lyophilized and suspended in 0.5 mL of methanol. […]
smiles,measurement,setting,value
"CC(=O)NC1C(O)CC(OC2C(O)C(OC3C(CO)OC(O)C(O)C3O)OC(CO)C2OC2OC(CO)C(O)C(OC3OC(CO)C(O)C(O)C3O)C2NC(C)=O)(C(=O)O)OC1C(O)C(O)CO (stereo not drawn) [OligoGM1, β-Gal-(1-3)-β-GalNAc-(1-4)-[α-Neu5Ac-(2-3)]-β-Gal-(1-4)-β-Glc]",effect on LY Pe and Papp (toxicity to hBLECs),[1],no variations of LY Pe and Papp were observed
same,metabolic stability after hBLEC crossing,[2],not metabolized by hBLECs
